In patent US20170209445A1, “KINASE INHIBITORS” (Respivert Limited, priority 2014, published 2017) one finds IC50 data, which are given here for 22 molecules.

The pIC50 is the negative decadic logarithm of the IC50, by convention in mol/L.

Each structure is given as a SMILES string. pIC50: −log10 of the molar value.

In the assay the test system is PBMCs. The assay is described as follows: LPS-induced IL-8 release in PBMC cells. The class given is cell-based. Conditions: Homo sapiens, LPS-stimulated PBMCs, read-out: IC50 Values for Inhibition of Cytokine Release PBMCs IL-8. The method, then: Peripheral blood mononuclear cells (PBMCs) from healthy subjects are separated from whole blood using a density gradient (Lymphoprep, Axis-Shield Healthcare). The PBMCs are seeded in 96 well plates and treated with compounds at the desired concentration for 2 hours before addition of 1 ng/mL LPS (Escherichia Coli 0111:B4 from Sigma Aldrich) for 24 hours under normal tissue culture conditions (37° C., 5% CO2). The supernatant is harvested for determination of IL-8 and TNFα concentrations by sandwich ELISA (Duo-set, R&D systems) and read on the fluorescence microplate reader (Varioskan® Flash, ThermoFisher Scientific).
Turning to `COCCOCCOCCOc1cc(Nc2ncc3cc(-c4cc(C(=O)Nc5cc(C(C)(C)C)cc(NS(C)(=O)=O)c5OC)ccc4C)ccc3n2)cc(C(F)(F)F)c1` [14(s), N-(5-(tert-Butyl)-2-methoxy-3-(methylsulfonamido)phenyl)-3-(2-((3-(2-(2-(2-methoxyethoxy)ethoxy)ethoxy)-5-(trifluoromethyl)phenyl)amino)quinazolin-6-yl)-4-methylbenzamide], the pIC50 was 7.45. Regarding `COc1c(NC(=O)c2ccc(C)c(-c3ccc4nc(Nc5cccc(N=S(C)(C)=O)c5)ncc4c3)c2)cc(C(C)(C)C)cc1NS(C)(=O)=O` [14(q), N-(5-(tert-Butyl)-2-methoxy-3-(methylsulfonamido)phenyl)-3-(2-((3-((dimethyl(oxo)-I6-sulfanylidene)amino)phenyl)amino)quinazolin-6-yl)-4-methylbenzamide], the pIC50 was 8.21. Then `COCCOCCNC(=O)c1ccc(Nc2ncc3cc(-c4cc(C(=O)Nc5cc(C(C)(C)C)cc(NS(C)(=O)=O)c5OC)ccc4C)ccc3n2)cc1OC` [14(w), 4-((6-(5-((5-(tert-Butyl)-2-methoxy-3-(methylsulfonamido)phenyl)carbamoyl)-2-methylphenyl)quinazolin-2-yl)amino)-2-methoxy-N-(2-(2-methoxyethoxy)ethyl)benzamide], with 8.08; and `COc1c(NC(=O)c2ccc(C)c(-c3ccc4nc(Nc5cc(C(=O)NCCN6CCOCC6)cc(C(F)(F)F)c5)ncc4c3)c2)cc(C(C)(C)C)cc1NS(C)(=O)=O` [14(u), N-(5-(tert-Butyl)-2-methoxy-3-(methylsulfonamido)phenyl)-4-methyl-3-(2-((3-((2-morpholinoethyl)carbamoyl)-5-(trifluoromethyl)phenyl)amino)quinazolin-6-yl)benzamide], with 7.69. Then `COc1cc(Nc2ncc3cc(-c4cc(C(=O)Nc5cc(C(C)(C)C)cc(NS(C)(=O)=O)c5OC)ccc4C)ccc3n2)ccc1C(=O)NCCCN1CCCOCC1` [14(ab), N-(3-(1,4-Oxazepan-4-yl)propyl)-4-((6-(5-((5-(tert-butyl)-2-methoxy-3-(methyl-sulfonamido)phenyl)carbamoyl)-2-methylphenyl)quinazolin-2-yl)amino)-2-methoxybenzamide], with 8.27; and `COc1cc(Nc2ncc3cc(-c4cc(C(=O)Nc5cc(C(C)(C)C)cc(NS(C)(=O)=O)c5OC)ccc4C)ccc3n2)ccc1C(=O)NCCC1(O)CCN(C)CC1` [14(aj), 4-((6-(5-((5-(tert-Butyl)-2-methoxy-3-(methylsulfonamido)phenyl)carbamoyl)-2-methylphenyl)quinazolin-2-yl)amino)-N-(2-(4-hydroxy-1-methylpiperidin-4-yl)ethyl)-2-methoxybenzamide], with 8.03. The value for `COc1cc(Nc2ncc3cc(-c4cc(C(=O)Nc5cc(C(C)(C)C)cc(NS(C)(=O)=O)c5OC)ccc4C)ccc3n2)ccc1C(=O)NCCn1ccnc1C` [14(ae), 4-((6-(5-((5-(tert-Butyl)-2-methoxy-3-(methylsulfonamido)phenyl)carbamoyl)-2-methyl-phenyl)quinazolin-2-yl)amino)-2-methoxy-N-(2-(2-methyl-1H-imidazol-1-yl)ethyl)benzamide] was 8.19.

On to `C#Cc1cc(Nc2ncc3cc(-c4cc(C(=O)Nc5cc(C(C)(C)C)cc(NS(C)(=O)=O)c5OC)ccc4C)ccc3n2)cc(C(=O)NCCOC)c1` [14(n), N-(5-(tert-Butyl)-2-methoxy-3-(methylsulfonamido)phenyl)-3-(2-((3-ethynyl-5-((2-methoxyethyl)carbamoyl)phenyl)amino)quinazolin-6-yl)-4-methylbenzamide], for which the pIC50 is 7.96. As to `COc1c(NC(=O)c2ccc(C)c(-c3ccc4nc(Nc5cccc(C(=O)NCCN6CCOCC6)c5)ncc4c3)c2)cc(C(C)(C)C)cc1NS(C)(=O)=O` [14(d), N-(5-(tert-Butyl)-2-methoxy-3-(methylsulfonamido)phenyl)-4-methyl-3-(2-((3-((2-morpholinoethyl)carbamoyl)phenyl)amino)quinazolin-6-yl)benzamide], the pIC50 is 8.08. The value for `COc1cc(Nc2ncc3cc(-c4cc(C(=O)Nc5cc(C(C)(C)C)cc(NS(C)(=O)=O)c5OC)ccc4C)ccc3n2)ccc1C(=O)NCCN1CCC(O)CC1` [14(ah), 4-((6-(5-((5-(tert-Butyl)-2-methoxy-3-(methylsulfonamido)phenyl)carbamoyl)-2-methylphenyl)quinazolin-2-yl)amino)-N-(2-(4-hydroxypiperidin-1-yl)ethyl)-2-methoxybenzamide] was 8.10; that for `COc1cc(Nc2ncc3cc(-c4cc(C(=O)Nc5cc(C(C)(C)C)cc(NS(C)(=O)=O)c5OC)ccc4C)ccc3n2)ccc1C(=O)NCCS(C)(=O)=O` [14(ad), 4-((6-(5-((5-(tert-Butyl)-2-methoxy-3-(methylsulfonamido)phenyl)carbamoyl)-2-methylphenyl)quinazolin-2-yl)amino)-2-methoxy-N-(2-(methylsulfonyl)ethyl)benzamide] was 8.15; that for `C#Cc1cc(Nc2ncc3cc(-c4cc(C(=O)Nc5cc(C(C)(C)C)cc(NS(C)(=O)=O)c5OC)ccc4C)ccc3n2)cc(C(=O)NCCOCCOC)c1` [14(m), N-(5-(tert-Butyl)-2-methoxy-3-(methylsulfonamido)phenyl)-3-(2-((3-ethynyl-5-((2-(2-methoxyethoxy)ethyl)carbamoyl)phenyl)amino)quinazolin-6-yl)-4-methylbenzamide] was 7.98. Then `COCCOCCOCCOc1cc(C#N)cc(Nc2ncc3cc(-c4cc(C(=O)Nc5cc(C(C)(C)C)cc(NS(C)(=O)=O)c5OC)ccc4C)ccc3n2)c1` [14(f), N-(5-(tert-Butyl)-2-methoxy-3-(methylsulfonamido)phenyl)-3-(2-((3-cyano-5-(2-(2-(2-methoxyethoxy)ethoxy)ethoxy)phenyl)amino)quinazolin-6-yl)-4-methylbenzamide], with 7.98; and `COc1cc(Nc2ncc3cc(-c4cc(C(=O)Nc5cc(C(C)(C)C)cc(NS(C)(=O)=O)c5OC)ccc4C)ccc3n2)ccc1C(=O)NCCN1CCN(C)CC1` [14(z), 4-((6-(5-((5-(tert-Butyl)-2-methoxy-3-(methylsulfonamido)phenyl)carbamoyl)-2-methyl-phenyl)quinazolin-2-yl)amino)-2-methoxy-N-(2-(4-methylpiperazin-1-yl)ethyl)benzamide], with 8.22.

As for `COc1cc(Nc2ncc3cc(-c4cc(C(=O)Nc5cc(C(C)(C)C)cc(NS(C)(=O)=O)c5OC)ccc4C)ccc3n2)ccc1C(=O)NCCN1CCN(CCO)CC1` [Example 13], the negative-log IC50 (pIC50) was 8.17.

As for `COc1c(NC(=O)c2ccc(C)c(-c3ccc4nc(Nc5cccc(P(C)(C)=O)c5)ncc4c3)c2)cc(C(C)(C)C)cc1NS(C)(=O)=O` [14(h), N-(5-(tert-Butyl)-2-methoxy-3-(methylsulfonamido)phenyl)-3-(2-((3-(dimethylphosphoryl)phenyl)amino)quinazolin-6-yl)-4-methylbenzamide], the pIC50 is 8.03. Take `COCCOCCOCCNC(=O)c1ccc(Nc2ncc3cc(-c4cc(C(=O)Nc5cc(C(C)(C)C)cc(NS(C)(=O)=O)c5OC)ccc4C)ccc3n2)cc1OC` [14(p), 4-((6-(5-((5-(tert-Butyl)-2-methoxy-3-(methylsulfonamido)phenyl)carbamoyl)-2-methylphenyl)quinazolin-2-yl)amino)-2-methoxy-N-(2-(2-(2-methoxyethoxy)ethoxy)ethyl)benzamide]: the pIC50 is 8.12.

Take `COc1cc(Nc2ncc3cc(-c4cc(C(=O)Nc5cc(C(C)(C)C)cc(NS(C)(=O)=O)c5OC)ccc4C)ccc3n2)ccc1C(=O)NCC(CO)(CO)CO` [14(x), 4-((6-(5-((5-(tert-Butyl)-2-methoxy-3-(methylsulfonamido)phenyl)carbamoyl)-2-methylphenyl)quinazolin-2-yl)amino)-N-(3-hydroxy-2,2-bis(hydroxymethyl)propyl)-2-methoxybenzamide]: the pIC50 is 8.11. Then `COc1cc(Nc2ncc3cc(-c4cc(C(=O)Nc5cc(C(C)(C)C)cc(NS(C)(=O)=O)c5OC)ccc4C)ccc3n2)ccc1C(=O)NCCCN1CC[S+]([O-])CC1` [Example 11, 4-((6-(5-((5-(tert-Butyl)-2-methoxy-3-(methylsulfonamido)phenyl)carbamoyl)-2-methylphenyl)-quinazolin-2-yl)amino)-2-methoxy-N-(3-(1-oxidothiomorpholino)propyl)benzamide], with 8.12; and `COCCOCCOCCOc1cc(Nc2ncc3cc(-c4cc(C(=O)Nc5cc(C(C)(C)C)cc(NS(C)(=O)=O)c5OC)ccc4C)ccc3n2)cc(OC(F)(F)F)c1` [14(r), N-(5-(tert-Butyl)-2-methoxy-3-(methylsulfonamido)phenyl)-3-(2-((3-(2-(2-(2-methoxy-ethoxy)ethoxy)ethoxy)-5-(trifluoromethoxy)phenyl)amino)quinazolin-6-yl)-4-methylbenzamide], with 7.31. For the molecule `COc1cc(Nc2ncc3cc(-c4cc(C(=O)Nc5cc(C(C)(C)C)cc(NS(C)(=O)=O)c5OC)ccc4C)ccc3n2)ccc1C(=O)NCCc1cccnc1` [14(ag), 4-((6-(5-((5-(tert-Butyl)-2-methoxy-3-(methylsulfonamido)phenyl)carbamoyl)-2-methylphenyl)quinazolin-2-yl)amino)-2-methoxy-N-(2-(pyridin-3-yl)ethyl)benzamide], the negative-log IC50 (pIC50) was 7.94.

With `COc1cc(Nc2ncc3cc(-c4cc(C(=O)Nc5cc(C(C)(C)C)cc(NS(C)(=O)=O)c5OC)ccc4C)ccc3n2)ccc1C(=O)NCCOCCOCCO` [14(v), 4-((6-(5-((5-(tert-Butyl)-2-methoxy-3-(methylsulfonamido)phenyl)carbamoyl)-2-methylphenyl)quinazolin-2-yl)amino)-N-(2-(2-(2-hydroxyethoxy)ethoxy)ethyl)-2-methoxybenzamide], the pIC50 is 8.36.
